{"source": "patent US20200255884A1", "about": "“METHOD OF DETECTION OF DNA END(S) AND ITS USE” (INTODNA SP. Z O.O., priority 2017, published 2020)", "tested_on": "HeLa 21-4 cells", "assay": "Procedure 1 on HeLa cells in suspension with subsequent isolation of chromatin, fluorescence spectrophotometer", "format": "cell-based", "details": "H2O2 4 mM, 30 minutes", "method": "In this Example, HeLa 21-4 cells (obtained from P.R. Cook, University of Oxford) were seeded on 6-well plates and cultured for 48 hours in DMEM supplemented with 10% FBS until the culture reached 100% confluency (number of cells: 1.2×10^6 per 1 well). Next, cells were treated with the DNA damaging agent H2O2 which was added directly to the growth medium (final concentration: 4 mM). The cells were incubated at 37° C. for 30 minutes in the standard cell culture incubator with CO2 level control. The control, untreated cells and the damaged cells (H2O2) were then harvested using 0.5 ml trypsin and transferred to 1.5 ml eppendorf tubes. Afterwards, trypsin was inactivated by adding 0.5 ml DMEM supplemented with 10% FBS. Subsequently, cells were spun down in the table top centrifuge (Eppendorf centrifuge, 5417 C, rotor: F45-30-11) (1700 rpm, 5 minutes, room temperature). The cell pellet was resuspended in PBS and again spun down (this washing step was repeated twice). When the supernatant PBS was discarded, cells were resuspended in the remaining droplet of PBS. Subsequently, ice-cold 70% Et(OH) was added dropwise, and cells were incubated in Et(OH) for 30 minutes in −20° C. Then, the cells were treated according to Procedure 1, wherein steps 1, 3, 4, 9 were omitted, and every washing step and every incubation were followed by centrifugation. BrdU was linked to free ends of DNA using TdT enzyme using APO-BRDU kit (Phoenix Flow Systems, AU: 1001) according to the supplier's instructions. […] The fluorescence signal was generated using Duolink® In Situ Detection Reagents Green (Sigma, DUO92014). […]\nThe level of fluorescence intensity of the cell extract obtained from untreated control cells and the H2O2 damaged cells was measured using a fluorescence spectrophotometer (Hitachi F-7000 supplied with Xe lamp). The fluorescence intensity was measured for 30 s (excitation 480 nm, emission 520 nm)."}
{"compound": "OO", "note": "[H2O2]", "values": [{"measurement": "fluorescence intensity per 1 ng of DNA", "setting": "cell extract", "value": "3.2±0.3×10^−4 a.u."}, {"measurement": "flurescence signal per 1 ng of DNA", "setting": "cell extract", "value": "3.2 ± 0.3 × 10^−4 a.u./ng"}, {"measurement": "fluorescence signal", "setting": "extract volume 40 μl, excitation 480 nm, emission 520 nm", "value": "0.046 ± 0.005", "unit": "a.u."}]}
